Data published in paper PMC10066720 (Journal of the American Chemical Society, 2022).

Key:
Type in all cases: biochemical
TEM-1 β-lactamase A237W [1] = biological target: T1, TEM-1 β-lactamase A237W (Escherichia coli, UniProt P62593, A235W); test: AVB covalent inhibition kinetics; conditions: A237W TEM-1
TEM-1 β-lactamase A237R [2] = biological target: T2, TEM-1 β-lactamase A237R (Escherichia coli, UniProt P62593, A235R); test: AVB covalent inhibition kinetics; conditions: A237R TEM-1
[3] = test system: TEM-1 β-lactamase A237Y^e (ester); test: AVB covalent inhibition kinetics; conditions: A237Y^e compared with A237Y
[4] = biological target: T3, TEM-1 β-lactamase A237Y^e (ester) (Escherichia coli, UniProt P62593, A235Y); test: AVB covalent inhibition kinetics; conditions: A237Y^e (ester) TEM-1
TEM-1 β-lactamase WT [5] = biological target: T4, TEM-1 β-lactamase WT (Escherichia coli, UniProt P62593); test: AVB covalent inhibition kinetics
TEM-1 β-lactamase A237Y [6] = biological target: T5, TEM-1 β-lactamase A237Y (Escherichia coli, UniProt P62593, A235Y); test: AVB covalent inhibition kinetics; conditions: A237Y TEM-1
TEM-1 β-lactamase A237E [7] = biological target: T6, TEM-1 β-lactamase A237E (Escherichia coli, UniProt P62593, A235E); test: AVB covalent inhibition kinetics; conditions: A237E TEM-1
[8] = biological target: T3, TEM-1 β-lactamase A237Y^e (ester); test: PenG acylation kinetics; conditions: A237Y^e (ester) TEM-1; median [68.25% confidence interval]
TEM-1 β-lactamase WT [9] = biological target: T4, TEM-1 β-lactamase WT; test: PenG acylation kinetics
TEM-1 β-lactamase A237Y [10] = biological target: T5, TEM-1 β-lactamase A237Y; test: PenG acylation kinetics; conditions: A237Y TEM-1; median [68.25% confidence interval]
TEM-1 β-lactamase A237E [11] = biological target: T6, TEM-1 β-lactamase A237E; test: PenG acylation kinetics; conditions: A237E TEM-1; median [68.25% confidence interval]
TEM-1 β-lactamase A237W [12] = biological target: T1, TEM-1 β-lactamase A237W; test: PenG acylation kinetics; conditions: A237W TEM-1; median [68.25% confidence interval]
TEM-1 β-lactamase A237R [13] = biological target: T2, TEM-1 β-lactamase A237R; test: PenG acylation kinetics; conditions: A237R TEM-1; median [68.25% confidence interval]

NC(=O)[C@@H]1CC[C@@H]2CN1C(=O)N2OS(=O)(=O)O [AVB, avibactam]
AVB carbamylation rate, kcbm (TEM-1 β-lactamase A237W [1]): 3.31 ± 0.05 s⁻¹ | AVB recyclization rate, krec (TEM-1 β-lactamase A237W [1]): (6.7 ± 1.3) × 10^−4 s^−1 | AVB carbamylation rate, kcbm (TEM-1 β-lactamase A237R [2]): 3.63 ± 0.03 s⁻¹ | AVB recyclization rate, krec (TEM-1 β-lactamase A237R [2]): (6.2 ± 0.9) × 10^−4 s^−1 | decrease in kcbm, factor [3]: 3.5 × 10^3 | decrease in krec, factor [3]: 5.0 × 10^3 | AVB carbamylation rate, kcbm [4]: (1.8 ± 0.1) × 10^−3 s^−1 | AVB recyclization rate, krec [4]: (3.4 ± 0.1) × 10^−7 s^−1 | AVB carbamylation rate, kcbm (TEM-1 β-lactamase WT [5]; WT TEM-1): 23.1 ± 0.2 s⁻¹ | AVB recyclization rate, krec (TEM-1 β-lactamase WT [5]; WT TEM-1): (2.3 ± 0.3) × 10^−4 s^−1 | enhancement of kcbm by the active site electric field (TEM-1 β-lactamase WT [5]; WT TEM·AVB, field −150 MV/cm): 7.5 orders of magnitude | acceleration of recyclization by the active site electric field (TEM-1 β-lactamase WT [5]; WT TEM−AVB, field −97 MV/cm): 4.9 orders of magnitude | AVB carbamylation rate, kcbm (TEM-1 β-lactamase A237Y [6]): 6.19 ± 0.08 s⁻¹ | AVB recyclization rate, krec (TEM-1 β-lactamase A237Y [6]): (1.7 ± 0.3) × 10^−3 s^−1 | AVB carbamylation rate, kcbm (TEM-1 β-lactamase A237E [7]): 4.63 ± 0.23 s⁻¹ | AVB recyclization rate, krec (TEM-1 β-lactamase A237E [7]): (8.7 ± 1.5) × 10^−5 s^−1

CC1(C)S[C@@H]2[C@H](NC(=O)Cc3ccccc3)C(=O)N2[C@H]1C(=O)O [PenG, penicillin G]
PenG acylation rate, kac [8]: 86.1 [69.2, 97.0] s^−1 | PenG acylation rate, kac (TEM-1 β-lactamase WT [9]; WT TEM-1, median [68.25% confidence interval]): 4941 [4784, 5086] s^−1 | enhancement of kac by the active site electric field (TEM-1 β-lactamase WT [9]; WT TEM·PenG, field −171 MV/cm): 8.6 orders of magnitude | PenG acylation rate, kac (TEM-1 β-lactamase A237Y [10]): 2838 [2740, 2940] s^−1 | PenG acylation rate, kac (TEM-1 β-lactamase A237E [11]): 5857 [5288, 6012] s^−1 | PenG acylation rate, kac (TEM-1 β-lactamase A237W [12]): 1390 [1366, 1415] s^−1 | PenG acylation rate, kac (TEM-1 β-lactamase A237R [13]): 3265 [3137, 3396] s^−1
